PMC7311950, “Potent Tetrahydroquinolone Eliminates Apicomplexan Parasites” (Frontiers in Cellular and Infection Microbiology, 2020)

Legend:
[1] = system: cytochrome P450 (CYP 450), 4 of 5 isoforms tested; assay: CYP450 inhibition; assay type: in vitro ADME; conditions: human; 4/5 isoforms
[2] = target: hERG (Homo sapiens, UniProt Q12809); assay: hERG liability; assay type: biochemical
[3] = system: P-glycoprotein (P-gp, MDR1); assay: in vitro; conditions: dog, MDCK-MDR1
Description: (§1) The effects of changing R1 as 7-Et, 7-Me, 6-CF3, or 6-Me on activity against RH strain tachyzoites, kinetic solubility, and metabolic stability were compared. Kinetic solubility and metabolic stability in human or murine liver microsomes were measured. The hERG (human Ether-à-go-go-Related) liability was also determined. The hERG gene (KCNH2) encodes a protein Kv11.1, the alpha subunit of a potassium ion channel. This channel conducts the rapid component of the delayed rectifier potassium current, IKr, which is critical for repolarization of cardiac action potentials. A reduction in hERG currents from adverse drug effects can lead to long QT interval syndromes. These syndromes are characterized by action potential prolongation, lengthening of the QT interval on surface EKG, and an increased risk for “torsade de pointes” arrhythmias and sudden death. The MDCK-MDR1 Permeability Assay was also performed. MDCK-MDR1 refers to the ability of a compound to permeate across membranes of MDCK-MDR1 (Madin Darby canine kidney [MDCK] cells with the MDR1 gene [ABCB1], the gene encoding for the efflux protein, P-glycoprotein (P-gp)) in vitro. Assessing transport in both directions (apical to basolateral and basolateral to apical) across the cell monolayers enables an efflux ratio to be determined. […] This provides a prediction of blood brain barrier (BBB) penetration potential/permeability and efflux ratio. Effect in CACO-2 (Colon Adenocarcinoma cells) as a permeability assay and on cytochrome P450 (CYP 450) were also determined. CYP enzymes catalyze oxidative biotransformation (phase 1 metabolism) of most drugs. CYP enzymes, bind to membranes in a cell (cyto) and contain a heme pigment (chrome and P) that absorbs light at a wavelength of 450 nm when exposed to carbon monoxide. Metabolism of a drug by CYP enzymes is a major source of variability in drug effect. These were measured by Chem Partners. The relative effect on HFF and parasite enzymes also were compared.
(§2) In vitro absorption, distribution, metabolism, excretion, and toxicity (ADMET) analyses of the THQ compounds were outsourced to ChemPartner Shanghai Ltd. ELQ-271 (synthesized in-house) was tested as a comparison.

[4] = system: P. berghei sporozoites; assay: P. berghei causal prophylaxis in vivo model; parameters: species or system Plasmodium berghei; conditions: oral nanoformulation, single dose 2.5 mg/kg day 0 or 3 doses 0.625 mg/kg days −1, 0, +1; C57BL/6 albino mice
Source text: P. berghei sporozoites were obtained from laboratory-reared female Anopheles stephensi mosquitoes which were maintained at 18 degrees C for 17–22 days after feeding on a luciferase expressing P. berghei infected Swiss CD1ICR. Using a dissecting microscope, the salivary glands were extracted from malaria-infected mosquitoes and sporozoites were obtained. Briefly, mosquitoes were separated into head/thorax and abdomen. Thoraxes and heads were triturated with a mortar and pestle and suspended in medium RPMI 1640 containing 1% C57BL/6 mouse serum (Rockland Co, Gilbertsville, PA, USA). […] They were stained with a vital dye containing fluorescein diacetate (50 mg/mL in acetone) and ethidium bromide (20 μg/mL in phosphate buffered saline; Sigma Chemical Co, St. Louis, MO, USA) and counted in a hemocytometer to ensure that inoculated sporozoites were viable following the isolation procedure. […]
Animals were dosed with experimental compounds based on body weight. […] To insure the size of the compounds in the dosing solution were under […], the suspension was homogenized using a homogenizer (PRO Scientific Inc, Monroe, CT, USA) with a 10 mm open-slotted generator running at 20,000–22,000 rpm for 5 min in an ice bath. […] Stability beyond that time was not determined. […]

[5] = system: P-glycoprotein (P-gp, MDR1/ABCB1); assay: in vitro; conditions: dog, MDCK-MDR1
Description: as §1, §2

Sequence of hERG (Q12809 whole entry): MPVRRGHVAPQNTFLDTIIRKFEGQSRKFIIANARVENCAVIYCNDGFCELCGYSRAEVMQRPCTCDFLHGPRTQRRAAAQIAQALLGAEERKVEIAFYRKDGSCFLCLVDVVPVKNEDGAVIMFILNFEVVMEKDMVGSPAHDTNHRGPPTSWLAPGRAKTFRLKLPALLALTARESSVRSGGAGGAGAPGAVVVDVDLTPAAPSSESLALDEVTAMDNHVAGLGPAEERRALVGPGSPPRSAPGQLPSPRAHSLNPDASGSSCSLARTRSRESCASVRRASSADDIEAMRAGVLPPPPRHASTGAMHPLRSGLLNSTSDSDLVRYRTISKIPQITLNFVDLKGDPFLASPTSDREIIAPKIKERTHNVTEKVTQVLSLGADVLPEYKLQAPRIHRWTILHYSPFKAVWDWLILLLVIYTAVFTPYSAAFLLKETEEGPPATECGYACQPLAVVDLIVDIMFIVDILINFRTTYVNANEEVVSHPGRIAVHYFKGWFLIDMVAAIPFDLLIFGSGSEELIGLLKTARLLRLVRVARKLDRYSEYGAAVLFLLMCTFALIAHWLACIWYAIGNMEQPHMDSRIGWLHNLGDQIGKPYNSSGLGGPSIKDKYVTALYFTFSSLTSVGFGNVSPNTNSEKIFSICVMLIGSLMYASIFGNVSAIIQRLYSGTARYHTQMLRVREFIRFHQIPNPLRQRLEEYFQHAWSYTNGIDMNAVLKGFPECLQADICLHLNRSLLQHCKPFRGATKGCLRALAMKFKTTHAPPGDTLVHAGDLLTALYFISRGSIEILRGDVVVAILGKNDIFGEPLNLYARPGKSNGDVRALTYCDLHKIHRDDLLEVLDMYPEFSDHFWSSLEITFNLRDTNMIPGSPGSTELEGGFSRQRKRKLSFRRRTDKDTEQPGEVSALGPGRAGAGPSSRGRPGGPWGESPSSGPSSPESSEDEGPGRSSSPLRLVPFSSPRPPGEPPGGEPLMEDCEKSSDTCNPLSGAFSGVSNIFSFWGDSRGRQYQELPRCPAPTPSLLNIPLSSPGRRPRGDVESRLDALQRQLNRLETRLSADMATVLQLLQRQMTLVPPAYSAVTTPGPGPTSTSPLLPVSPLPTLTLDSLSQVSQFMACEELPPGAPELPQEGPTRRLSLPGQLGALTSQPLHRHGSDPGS

## Cc1[nH]c2c(c(=O)c1-c1ccc(Oc3ccc(OC(F)(F)F)cc3)cc1)CCCC2 [JAG21, 2-Methyl-3-(4-(4-(Trifluoromethoxy)Phenoxy)Phenyl)-5,6,7,8-Tetrahydroquinolin-4-One]
[1]
  IC50: > 10 µM
[2]
  IC50: 22 µM
[3]
  Papp: > 10 ×10⁻⁶ cm/s
  efflux ratio: < 1.5
[4]
  survival 30 days post infection: 100%

## Cc1[nH]c2c(c(=O)c1-c1ccc(Oc3ccc(Cl)cc3)cc1)CCCC2 [JAG50]
[5]
  Papp: > 10 ×10⁻⁶ cm/s
  efflux ratio: < 1.5
